Converted amounts (≈) assume the structure as drawn.
Legend:
[1] = species on record: Homo sapiens; experiment: Selectivity index, ratio of IC50 for mTOR in human MCF7 cells to Ki for recombinant human full-length PI3K p110alpha/p85alpha; assay type: cell-based
[2] = species on record: Homo sapiens; experiment: Selectivity index, ratio of IC50 for recombinant human N-terminal Myr signal and C-terminal Flag-tagged PI3K p110beta to Ki for recombinant human full-length PI3K p110alpha/p85alpha
[3] = species on record: Homo sapiens; experiment: Selectivity index, ratio of IC50 for recombinant human N-terminal Myr signal and C-terminal Flag-tagged PI3K p110delta to Ki for recombinant human full-length PI3K p110alpha/p85alpha
[4] = system: T47D; experiment: Antiproliferation activity against human T47D cells assessed as reduction in cell viability incubated for 7 days by Cell-titer Glo reagent based assay; assay type: functional; conditions: 168 h
[5] = Inhibition of PI3K p110alpha H1047R mutant in human T47D cells assessed as reduction in phosphorylation of Akt at T308 residue incubated for 2 hrs by ELISA; assay type: cell-based
[6] = Inhibition of PI3K p110alpha […] mutant in human MCF7 cells assessed as reduction in phosphorylation of Akt at T308 residue incubated for 2 hrs by ELISA; assay type: cell-based; conditions: MCF7, 2 h
[7] = system: MCF7; experiment: Antiproliferation activity against human MCF7 cells assessed as reduction in cell viability incubated for 7 days by Cell-titer Glo reagent based assay; assay type: functional; conditions: MCF7, 168 h
[8] = biological target: Serine/threonine-protein kinase mTOR (Homo sapiens, UniProt P42345); experiment: Inhibition of mTOR in TSC1 null human MCF7 cells assessed as decrease in p70S6K phosphorylation at Thr389 residue incubated for 2 hrs by ELISA; assay type: cell-based
[9] = Oral bioavailability in Wistar Han rat at 10 mg/kg; assay type: ADME, organism-based; conditions: in vivo
[10] = Tmax in Wistar Han rat at 10 mg/kg, po; assay type: ADME, organism-based; conditions: in vivo
[11] = Cmax in Wistar Han rat at 10 mg/kg, po; assay type: ADME, organism-based; design: route oral, dose 10 mg/kg; conditions: in vivo
[12] = AUC (0 to t) in Wistar Han rat at 10 mg/kg, po; assay type: ADME, organism-based; design: dose 10 mg/kg; conditions: in vivo
[13] = AUC (0 to t) in Wistar Han rat at 2 mg/kg, iv; assay type: ADME, organism-based; design: dose 2 mg/kg; conditions: in vivo
[14] = Half life in Wistar Han rat at 2 mg/kg, iv; assay type: ADME, organism-based; conditions: in vivo
[15] = Volume of distribution at steady state in Wistar Han rat at 2 mg/kg, iv; assay type: ADME, organism-based; conditions: in vivo, read-out: Vdss
[16] = Plasma clearance in Wistar Han rat at 2 mg/kg, iv; assay type: ADME, organism-based
[17] = Kinetic solubility of compound at pH 7.4 after 24 hrs by LC/MS/MS analysis; assay type: physicochemical; conditions: buffer, read-out: Kinetic_solubility
[18] = Thermodynamic solubility of compound at pH 7.4; assay type: physicochemical; conditions: buffer, read-out: Therm_solubility
[19] = system: Rat1; experiment: Selectivity index, ratio of IC50 for recombinant human N-terminal Myr signal and C-terminal Flag-tagged PI3K p110delta to IC50 for recombinant human N-terminal Myr signal and C-terminal Flag-tagged PI3K p110alpha expressed in rat Rat1 cells; assay type: cell-based
[20] = system: Rat1; experiment: Selectivity index, ratio of IC50 for recombinant human N-terminal Myr signal and C-terminal Flag-tagged PI3K p110beta to IC50 for recombinant human N-terminal Myr signal and C-terminal Flag-tagged PI3K p110alpha expressed in rat Rat1 cells; assay type: cell-based
[21] = biological target: T1, Phosphatidylinositol 4,5-bisphosphate 3-kinase catalytic subunit delta isoform (Homo sapiens, UniProt O00329); experiment: Inhibition of recombinant human N-terminal Myr signal and C-terminal Flag-tagged PI3K p110delta expressed in rat Rat1 cells; assay type: cell-based
T1 sequence (O00329 whole entry): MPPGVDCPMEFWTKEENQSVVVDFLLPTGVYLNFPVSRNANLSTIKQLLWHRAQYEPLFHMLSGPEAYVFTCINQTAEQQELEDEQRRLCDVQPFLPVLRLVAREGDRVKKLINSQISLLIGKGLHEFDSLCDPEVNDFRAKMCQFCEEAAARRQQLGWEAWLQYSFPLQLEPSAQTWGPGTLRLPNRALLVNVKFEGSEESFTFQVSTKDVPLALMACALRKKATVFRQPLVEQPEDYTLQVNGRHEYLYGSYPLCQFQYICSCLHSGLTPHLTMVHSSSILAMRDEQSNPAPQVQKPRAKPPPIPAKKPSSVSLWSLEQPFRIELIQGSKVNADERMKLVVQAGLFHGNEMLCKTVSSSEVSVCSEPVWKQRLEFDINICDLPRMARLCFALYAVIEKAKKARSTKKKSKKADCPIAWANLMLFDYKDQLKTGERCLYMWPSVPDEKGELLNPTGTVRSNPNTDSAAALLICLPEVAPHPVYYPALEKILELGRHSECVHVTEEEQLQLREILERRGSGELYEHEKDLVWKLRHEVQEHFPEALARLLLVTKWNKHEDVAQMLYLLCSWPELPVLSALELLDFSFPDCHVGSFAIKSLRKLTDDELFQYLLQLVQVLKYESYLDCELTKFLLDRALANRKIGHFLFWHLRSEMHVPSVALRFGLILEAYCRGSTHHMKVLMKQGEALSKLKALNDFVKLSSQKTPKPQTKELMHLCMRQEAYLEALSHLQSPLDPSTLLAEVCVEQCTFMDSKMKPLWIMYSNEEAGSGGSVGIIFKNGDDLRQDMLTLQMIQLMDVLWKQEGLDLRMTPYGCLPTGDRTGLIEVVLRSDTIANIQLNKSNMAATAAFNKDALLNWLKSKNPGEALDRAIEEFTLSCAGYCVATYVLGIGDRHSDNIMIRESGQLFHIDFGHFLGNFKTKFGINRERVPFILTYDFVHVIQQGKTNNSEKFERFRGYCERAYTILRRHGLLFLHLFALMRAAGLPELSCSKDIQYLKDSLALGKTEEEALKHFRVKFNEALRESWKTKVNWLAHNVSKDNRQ

[22] = biological target: Phosphatidylinositol 4,5-bisphosphate 3-kinase catalytic subunit beta isoform (Homo sapiens, UniProt P42338); experiment: Inhibition of recombinant human N-terminal Myr signal and C-terminal Flag-tagged PI3K p110beta expressed in rat Rat1 cells; assay type: cell-based
Phosphatidylinositol 4,5-bisphosphate 3-kinase catalytic subunit beta isoform, sequence (P42338 whole entry, canonical isoform): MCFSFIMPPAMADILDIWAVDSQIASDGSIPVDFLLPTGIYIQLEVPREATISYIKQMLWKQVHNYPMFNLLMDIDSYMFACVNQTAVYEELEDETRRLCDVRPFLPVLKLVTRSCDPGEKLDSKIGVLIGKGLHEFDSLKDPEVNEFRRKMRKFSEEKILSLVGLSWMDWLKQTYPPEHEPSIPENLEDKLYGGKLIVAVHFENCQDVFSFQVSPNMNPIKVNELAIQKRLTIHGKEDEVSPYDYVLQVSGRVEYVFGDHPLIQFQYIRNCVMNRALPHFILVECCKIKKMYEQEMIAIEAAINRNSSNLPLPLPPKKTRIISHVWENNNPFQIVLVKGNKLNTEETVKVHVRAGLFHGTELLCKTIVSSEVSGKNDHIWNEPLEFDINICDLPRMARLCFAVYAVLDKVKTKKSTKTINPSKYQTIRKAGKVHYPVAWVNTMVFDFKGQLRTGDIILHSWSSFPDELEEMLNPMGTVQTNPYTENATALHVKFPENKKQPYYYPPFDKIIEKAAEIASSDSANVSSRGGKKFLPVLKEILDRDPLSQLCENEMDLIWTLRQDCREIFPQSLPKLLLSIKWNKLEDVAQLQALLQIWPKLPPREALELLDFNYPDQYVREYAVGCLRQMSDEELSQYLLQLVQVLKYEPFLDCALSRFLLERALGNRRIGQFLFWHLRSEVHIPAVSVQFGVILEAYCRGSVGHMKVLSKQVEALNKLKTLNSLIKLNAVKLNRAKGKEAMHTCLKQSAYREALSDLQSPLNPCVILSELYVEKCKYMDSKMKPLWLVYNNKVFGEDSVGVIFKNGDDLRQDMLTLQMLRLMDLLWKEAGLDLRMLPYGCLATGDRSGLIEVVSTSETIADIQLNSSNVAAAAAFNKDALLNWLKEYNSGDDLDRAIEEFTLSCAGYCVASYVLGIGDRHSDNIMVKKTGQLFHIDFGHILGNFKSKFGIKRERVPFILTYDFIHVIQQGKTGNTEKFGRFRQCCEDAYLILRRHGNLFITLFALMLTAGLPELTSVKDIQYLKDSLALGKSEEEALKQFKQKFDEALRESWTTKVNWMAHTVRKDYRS

[23] = biological target: Phosphatidylinositol 4,5-bisphosphate 3-kinase catalytic subunit alpha isoform (Homo sapiens, UniProt P42336); experiment: Inhibition of recombinant human N-terminal Myr signal and C-terminal Flag-tagged PI3K p110alpha expressed in rat Rat1 cells; assay type: cell-based
Phosphatidylinositol 4,5-bisphosphate 3-kinase catalytic subunit alpha isoform, sequence (P42336 whole entry, canonical isoform): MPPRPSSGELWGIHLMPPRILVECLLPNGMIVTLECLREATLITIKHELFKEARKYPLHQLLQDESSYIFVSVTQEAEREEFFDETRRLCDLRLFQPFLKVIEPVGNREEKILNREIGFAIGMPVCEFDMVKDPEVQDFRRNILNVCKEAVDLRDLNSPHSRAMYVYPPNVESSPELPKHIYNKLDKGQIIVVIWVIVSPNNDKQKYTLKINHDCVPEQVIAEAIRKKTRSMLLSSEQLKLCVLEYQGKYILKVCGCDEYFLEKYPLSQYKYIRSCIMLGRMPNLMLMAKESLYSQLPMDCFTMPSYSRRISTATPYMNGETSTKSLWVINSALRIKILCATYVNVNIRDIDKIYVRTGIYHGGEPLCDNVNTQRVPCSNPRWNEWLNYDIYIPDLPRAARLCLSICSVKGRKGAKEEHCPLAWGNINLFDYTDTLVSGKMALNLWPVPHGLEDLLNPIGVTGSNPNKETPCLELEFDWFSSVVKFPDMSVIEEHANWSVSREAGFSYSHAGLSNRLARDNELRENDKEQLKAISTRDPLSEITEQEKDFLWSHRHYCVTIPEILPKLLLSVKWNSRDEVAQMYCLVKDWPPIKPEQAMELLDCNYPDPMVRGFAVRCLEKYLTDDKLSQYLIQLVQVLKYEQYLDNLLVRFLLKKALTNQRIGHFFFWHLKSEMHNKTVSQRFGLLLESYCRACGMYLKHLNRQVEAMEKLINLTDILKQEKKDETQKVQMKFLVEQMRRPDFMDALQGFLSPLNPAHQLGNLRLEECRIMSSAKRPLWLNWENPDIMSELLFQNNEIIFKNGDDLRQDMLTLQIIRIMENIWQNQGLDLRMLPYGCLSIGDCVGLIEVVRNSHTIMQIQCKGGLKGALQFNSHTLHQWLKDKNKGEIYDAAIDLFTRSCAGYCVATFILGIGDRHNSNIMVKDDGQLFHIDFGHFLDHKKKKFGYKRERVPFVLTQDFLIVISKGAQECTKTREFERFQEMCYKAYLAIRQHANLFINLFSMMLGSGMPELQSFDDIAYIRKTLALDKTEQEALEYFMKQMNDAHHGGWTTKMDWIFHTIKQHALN

[24] = biological target: PI3-kinase p110-alpha/p85-alpha (Homo sapiens, UniProt P42336); experiment: Inhibition of recombinant human full-length PI3K p110alpha/p85alpha (322 to 600) expressed in baculovirus infected Sf21 cells using phosphatidylinositol 4,5-bisphosphate as substrate preincubated for 15 mins followed by addition of ATP and measured after 30 mins by fluorescence polarisation assay
PI3-kinase p110-alpha/p85-alpha, sequence (P27986 whole entry): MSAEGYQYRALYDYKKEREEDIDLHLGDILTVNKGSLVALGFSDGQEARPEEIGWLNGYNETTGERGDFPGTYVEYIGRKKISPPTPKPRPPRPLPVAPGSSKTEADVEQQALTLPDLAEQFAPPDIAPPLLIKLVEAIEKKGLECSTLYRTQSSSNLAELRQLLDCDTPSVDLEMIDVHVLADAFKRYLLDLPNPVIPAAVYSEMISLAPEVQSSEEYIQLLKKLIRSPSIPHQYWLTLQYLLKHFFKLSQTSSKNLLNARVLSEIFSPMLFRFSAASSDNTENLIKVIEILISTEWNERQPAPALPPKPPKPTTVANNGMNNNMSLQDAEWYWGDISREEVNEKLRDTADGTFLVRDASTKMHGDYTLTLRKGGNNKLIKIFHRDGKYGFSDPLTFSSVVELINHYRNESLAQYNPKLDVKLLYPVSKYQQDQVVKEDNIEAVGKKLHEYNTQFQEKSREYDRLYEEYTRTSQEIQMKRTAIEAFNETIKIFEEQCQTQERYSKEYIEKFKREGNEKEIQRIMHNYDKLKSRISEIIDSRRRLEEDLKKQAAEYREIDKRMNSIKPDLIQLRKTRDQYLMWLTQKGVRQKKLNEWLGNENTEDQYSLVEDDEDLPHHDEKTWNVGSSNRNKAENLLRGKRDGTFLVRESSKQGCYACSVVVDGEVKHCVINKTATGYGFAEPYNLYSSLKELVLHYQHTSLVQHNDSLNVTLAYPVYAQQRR
PI3-kinase p110-alpha/p85-alpha, sequence (P42336 whole entry): as the sequence (P42336 whole entry, canonical isoform) above

[25] = biological target: PI3K p110 beta/p85 alpha (Homo sapiens, UniProt P42338); experiment: Inhibition of recombinant human PI3K p110beta/p85alpha using phosphatidylinositol 4,5-bisphosphate as substrate preincubated for 15 mins followed by addition of ATP and measured after 30 mins by fluorescence polarisation assay; assay type: protein-complex assay
PI3K p110 beta/p85 alpha, sequence (P27986 whole entry): as the sequence (P27986 whole entry) above
PI3K p110 beta/p85 alpha, sequence (P42338 whole entry): as the sequence (P42338 whole entry, canonical isoform) above

[26] = biological target: PI3-kinase p110-delta/p85-alpha (Homo sapiens, UniProt O00329); experiment: Inhibition of recombinant human PI3K p110delta/p85alpha using phosphatidylinositol 4,5-bisphosphate as substrate preincubated for 15 mins followed by addition of ATP and measured after 30 mins by fluorescence polarisation assay; assay type: protein-complex assay
PI3-kinase p110-delta/p85-alpha, sequence (P27986 whole entry, one chain of several): as the sequence (P27986 whole entry) above

[27] = Distribution coefficient, logD of compound at pH 7.4; assay type: physicochemical; conditions: octanol/water
[28] = Apparent intrinsic clearance in human liver microsomes; assay type: ADME, Microsome; conditions: read-out: CLH(app)
[29] = Passive permeability of compound in RRCK cells; assay type: ADME, cell-based, Canis lupus familiaris, MDCKII-LE; conditions: dog, MDCK; read-out: permeability
[30] = Kinetic solubility of compound; assay type: physicochemical; conditions: read-out: Kinetic_solubility
[31] = species on record: Homo sapiens; experiment: Selectivity index, ratio of Ki for recombinant human PI3K p110beta/p85alpha to Ki for recombinant human full-length PI3K p110alpha/p85alpha (322 to 600) using phosphatidylinositol 4,5-bisphosphate as substrate
[32] = species on record: Homo sapiens; experiment: Selectivity index, ratio of Ki for recombinant human PI3K p110delta/p85alpha to Ki for recombinant human full-length PI3K p110alpha/p85alpha (322 to 600) using phosphatidylinositol 4,5-bisphosphate as substrate

SMILES	Ratio IC50 [19]	Ratio IC50 [20]	IC50 [21] [nM]	IC50 [22] [nM]	IC50 [23] [nM]	Ki [24] [nM]	Ki [25] [nM]	Ki [26] [nM]	logD [27]	microsomal CLint [28] [µL/min/mg]	Papp [29] [nm/s]	solubility kinetic [30] [µM]	Ratio Ki [31]	Ratio Ki [32]	further results
Nc1ncc(-c2nc(N3CCOCC3)nc(N[C@@]3(CO)CCN(C(=O)OCC(F)F)C3)c2F)cn1	9	20	160	360	18	< 0.018	2	< 0.28	1.9	< 18	130	2.5 (≈ 1.25 µg/mL)			Selectivity Index [1]: 83; Selectivity Index [2]: 20; Selectivity Index [3]: 9; IC50 [4]: 32 nM; IC50 [5]: 8.7 nM; IC50 [6]: 7.8 nM; IC50 [7]: 62 nM; IC50 [8]: 1500 nM; bioavailability [9]: 25%; Tmax [10]: 1 h; Cmax [11]: 0.33 µg/mL; AUC(0-t) [12]: 1.4 µg·h/mL; AUC(0-t) [13]: 1.1 µg·h/mL; half-life [14]: 3.6 h; Vd [15]: 3 L/kg; clearance [16]: 1.8 L/h/kg; solubility kinetic at 24 h [17]: 1.3 µg/mL (≈ 2.61 µM); solubility thermodynamic [18]: 6.2 µg/mL (≈ 12.4 µM)
CNS(=O)(=O)N1CC[C@H](N2CCc3c(-c4cnc(N)nc4)nc(N4CCOCC4)nc32)C1					130	0.12	16	4.5	1.4	< 11	160	380 (≈ 175 µg/mL)	125	37	
CC(C)C(=O)N1CC[C@](C)(N2CCc3c(-c4cnc(N)nc4)nc(N4CCOCC4)nc32)C1	3	37	17	260	6.9	< 0.018	17	< 0.28	2.4	46	360	500 (≈ 226 µg/mL)			
CC(C)(C)OC(=O)N1CC[C@](C)(N2CCc3c(-c4cnc(N)nc4)nc(N4CCOCC4)nc32)C1	14	94	92	640	6.8	< 0.018	25	0.46	3.7	160	210	97 (≈ 46.8 µg/mL)	> 1390	> 26	
CC(=O)N1CC[C@H](N2CCc3c(-c4cnc(N)nc4)nc(N4CCOCC4)nc32)C1							20	22	1.1	< 8	130	530 (≈ 218 µg/mL)	17	19	
Cc1nc(NC(=O)N2CCC[C@H]2C(N)=O)sc1-c1ccnc(C(C)(C)C(F)(F)F)c1 [ALPELISIB]															IC50 [4]: 420 nM; IC50 [5]: 30 nM; IC50 [6]: 39 nM; IC50 [7]: 530 nM; IC50 [8]: 3000 nM
CC(C)(N)C(=O)N1CC[C@](C)(N2CCc3c(-c4cnc(N)nc4)nc(N4CCOCC4)nc32)C1	5	13	120	330	25	0.023	13	2.5	0.4	< 9	42	460 (≈ 215 µg/mL)			

From ChEMBL document CHEMBL4706640, “Structure-Based Drug Design and Synthesis of PI3Kα-Selective Inhibitor (PF-06843195)” (J Med Chem, 2021)
